Earlier results on three substances are cited in patent publication US20260265370A1, “COMBINATION THERAPIES INVOLVING CLAUDIN 18.2 ANTAGONISTS FOR TREATMENT OF CANCER” (SUZHOU TRANSCENTA THERAPEUTICS CO., LTD., priority 2023, published 2026).

In series [1] the test system is unresectable advanced or recurrent gastric cancer. The settings on record: cited from earlier work.
For series [2], the system named is CLDN18.2+/HER2− locally advanced or metastatic gastric or gastroesophageal junction (mG/GEJ) adenocarcinoma. The settings on record: cited from earlier work; for ORR: patients with measurable disease.
A further series relates to advanced GC/GEJ cancer. The settings on record: cited from earlier work.
The mark [3] stands for this setting: CLDN18.2 ≥75% tumor cell staining 2+ or 3+.
[4] abbreviates: zolbetuximab+CAPOX vs PBO+CAPOX.

Read-outs that look alike come from different tables or passages of the source.

Take Nivolumab: PD-1 checkpoint inhibitor: the ORR in series [1] (in vivo) was 11%. Further, in series [1] (n=330), the “12-month OS rate” value was 26.2%. The “overall survival (OS)” value in series [1] (progressed after two or more chemotherapy regimens) is 5.26 months. Also, in series [1] (vs placebo), the “HR of OS” value is reported as 0.63.
In the case of “Zolbetuximab + CAPOX: GLOW arm: zolbetuximab plus capecitabine and oxaliplatin”, in series [2] (setting [3]), the mDoR is on record as 6.28 months, the mPFS is listed as 8.21 months and the ORR was 53.8%. Moreover, the ORR in series [2] (CLDN18.2 ≥75% tumor cell staining 2+ or 3+, listed as Zolbetuximab+CAPOX) is listed as 53.8%. The ORR in series [2] (CLDN18.2 ≥75% tumor cell staining 2+ or 3+, listed as zolbetuximab+CAPOX) is listed as 53.8%. In addition, in series [2] (in vivo), the OS median is recorded as 14.39 mo, the TEAE decreased appetite is listed as 41.3%, the TEAE nausea is reported as 68.5% and the TEAE vomiting is reported as 66.1%. For the same substance, in series [2] (in vivo), the “drug-related TEAEs leading to death” value is given as 2.4%, the “grade ≥3 TEAEs” value was 72.8% and the “serious TEAEs” value is on record as 47.2%. In series [2] (setting [4]), the “HR of OS” value is listed as 0.771 and the “HR of PFS” value is listed as 0.687.
“Zolbetuximab: first-in-class, chimeric monoclonal antibody specific to a CLDN18.2 epitope”: the “tolerability” value with advanced GC/GEJ cancer (in vivo) was “well-tolerated”. Moreover, the ORR with advanced GC/GEJ cancer (phase IIa monotherapy, strong CLDN18.2 expression, ≥2+ staining intensity in 70% of tumor cells) was 14%.
